These results are taken from US6855730B2, “3-methylidenyl-2-indolinone modulators of protein kinase” (Sugen, Inc., priority 1998, dated 2005).

Bounds are passed on as bounds.

One test concerns the target T1, PDGFR-β (Homo sapiens, UniProt P09619).
T1 construct: host or cells: NIH 3T3
The experiment in a line: Biochemical PDGFR assay (ELISA, PDGFR-β expressing NIH 3T3 cell lysate). Conditions: read-out: bio PDGF IC50. A digest of the protocol: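 PDGFR-β from NIH 3T3 cell lysate captured on anti-PDGFR (28D4C10)-coated plates; compound preincubated 30 min, then 20 μM ATP kinase reaction 30 min at room temperature, stopped with EDTA. Phosphotyrosine detected by anti-phosphotyrosine antibody, peroxidase conjugate and ABTS/H2O2, read at 410 nm.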
A general note: ELISA stands for enzyme-linked immunosorbent assay.

Test [1] has as its target Myc-GyrB-FGFR fusion protein (Homo sapiens, UniProt P11362). The experiment in a line: Biochemical FGFR assay (ELISA). Conditions: read-out: bio fgfR1 IC50.
Method: This assay measures in vitro kinase activity of the Myc-GyrB-FGFR fusion protein using ELISA.
Materials and Reagents • 1. HNTG
PBS (Dulbecco's Phosphate-Buffered Saline, Gibco Catalog # 450-1300EB). • 3. Blocking Buffer. • 4. Kinase Buffer.
Working solution: 100 mM in ethanol. • 6.
ABTS Solution. • 10. Hydrogen peroxide 30% solution ( Fisher Catalog # H325). • 11. ABTS/H2O2. • 12. 0.2 M HCl. • 13.
Prepare 1.0 mM solution in MilliQ H2O, adjust pH to 7.2 with HCl. • 14.
Prepare 5 M solution in MilliQ H2O. • 15. MgCl, (Fisher Cat. No. M33-500).
Prepare 1 M solution in MilliQ H2O. • 16. HEPES (Fisher Cat. No. BP310-500).
Prepare 1 M solution in MilliQ H2O, adjust pH to 7.5, sterile filter. • 17. TBST Buffer. • 18. Sodium Carbonate Buffer (Fisher Cat. No. S495).
Prepare 0.1 M solution in MilliQ H2O, adjust pH to 9.6 with NaOH, filter. • 19. Dithiothreitol (DTT, Fisher Cat. No. BP172-25).
Prepare 0.5 mM working solution in MilliQ H2O just prior to-use. Store at −20° C. until used, discard any leftover. • 20. MnCl2. • 21. Triton X-100. • 22. Goat α-Rabbit IgG (Cappel). • 23. Affinity purified Rabbit α GST GyrB (Biochemistry Lab. SUGEN, Inc.).
All of the following steps are conducted at room temperature unless otherwise indicated. • 1. Coat Corning 96-well ELISA plates with 2 μg Goat α-Rabbit antibody per well in Carbonate Buffer such that total well volume is 100 μl. Store overnight at 40° C. • 2. Remove unbound Goat a-Rabbit antibody by inverting plate to remove liquid. Pat plate on a paper towel to remove excess liquid and bubbles • 3.. Add 150 μl Blocking Buffer (5% Low Fat Milk in PBS) to each well. Incubate while shaking on a micro-titer plate shaker for 30 min. • 4. Wash 4× with TBST. Pat plate on a paper towel to remove excess liquid and bubbles. • 5. Add 0.5 μg Rabbit α-GyrB antibody per well. Dilute antibody in DPBS to a final volume of 100 μl per well. Incubate with shaking on a micro-titer plate shaker at room temperature for 1 hour. • 6. Wash 4× with TBST as described in step 4. • 7. Add 2 μg COS/FGFR cell lysate (Myc-GyrB-FGFR source) in HNTG to each well to give a final volume of 100 μl per well. Incubate with shaking on a micro-titer plate shaker for 1 hour. • 8. Wash 4× with TBST as described in step 4. • 9. Add 80 μl of 1× kinase buffer per well. • 10. […] Transfer 10 μ l of diluted test compound solution and control wells from polypropylene plate wells to the corresponding ELISA plate wells, incubate with shaking on a micro-titer plate shaker for 20 minutes. • 12. Add 10 μl of 70 μM ATP diluted in kinase buffer to positive control and test wells (Final ATP concentration is 7 EM/well). Add 10 μl 1× kinase buffer to negative control wells. Incubate with shaking on a micro-titer plate shaker for 15 min. • 13. Stop kinase reaction by adding 5 μl 0.5 M EDTA to all wells. • 14. Wash 4× with TBST as described in step 4. • 15. Add 100 μl biotin conjugated α-phosphotyrosine mab (b4G10) diluted in TBST to each well. Incubate with shaking on a micro-titer plate shaker for 30 minutes. • 16. Prepare Vectastain ABC reagent. […] Mix by inverting tube several times. Add 1 drop reagent B and mix again. • 17. Wash 4× with TBST as described in step 4. • 18. Add 100 μl ABC HRP reagent to each well. Incubate with shaking on a micro-titer plate shaker for 30 minutes. • 19. Wash 4× with TBST as described in step 4. • 20. Add 100 μl of ABTS/H2O2 solution to each well. • 22. Incubate 5 to 15 minutes with shaking. Remove any bubbles. • 23. If necessary stop reaction by adding 1 00 μl of 0.2M HCl/well. • 24.
A further test deals with T2, flkGST (Homo sapiens, UniProt P35968).
T2 construct: GST
The experiment in a line: bio flkGST assay. In kind it is biochemical.

The next test addresses EGFR (Homo sapiens, UniProt P00533). The experiment in a line: Biochemical EGFR assay (ELISA, A431 cell lysate). More on the design: A431 cell lysate (Screening Lab, SUGEN, Inc.); host or cells: A431. Conditions: read-out: bio EGFr IC50. As for the experimental part:
This assay measures the in vitro kinase activity of EGFR using ELISA.
Materials and Reagents • 1. […] SUMO1 monoclonal anti-EGFR antibody (Biochemistry Lab, SUGEN, Inc.). • 3. PBS (Dulbecco's Phosphate-Buffered Saline, Gibco Catalog No. 450-1300EB). • 4. TBST Buffer
• 6. A431 cell lysate (Screening Lab, SUGEN, Inc.) • 7. TBS Buffer:
Prepare a 1.0 mM solution in dH2O. This reagent should be made up immediately prior to use and kept on ice. • 10. MnCl2.
Prepare a 1.0 M stock solution in dH2O. • 11. ATP/MnCl2 phosphorylation mix
This reagent should be prepared immediately before use and kept on ice. • 12. NUNC 96-well V bottom polypropylene plates (Applied Scientific Cat. No. AS-72092). • 13. Ethylenediaminetetraacetic acid (EDTA)
Prepare 200 mM working solution in dH2O. Adjust to pH 8.0 with 10 N NaOH. • 14. Rabbit polyclonal anti-phosphotyrosine serum (Biochemistry Lab, SUGEN, Inc.) • 15. Goat anti-rabbit IgG peroxidase conjugate (Biosource Cat. No. ALI0404) • 16. ABTS (2,2′-azino-bis(3-ethylbenzthiazoline-6-sulfonic acid), Sigma Cat. No. A-1888).
Mix first two ingredients in about 900 ml dH2O, adjust pH to 4.0 with phosphoric acid. Add ABTS, cover, let sit about 0.5 hr., filter. The solution should be kept in the dark at 4° C. until ready to use. • 17. Hydrogen peroxide 30% solution (Fisher Cat. No. H325) • 18. ABTS/H2O2 • Mix 15 ml ABTS solution and 2.0 μl H2O2. Prepare 5 minutes before use. • 19. 0.2 M HCl
Procedure • 1. Coat Corning 96 well ELISA plates with 0.5 μg SUMO1 in 100 μl PBS per well, store overnight at 4° C. • 2. Remove unbound SUMO1 from wells by inverting plate to remove liquid., Wash 1× with dH2O. Pat the plate on a paper towel to remove excess liquid. • 3. Add 150 μl of Blocking Buffer to each well. Incubate for 30 min. at room temperature with shaking. • 4. Wash plate 3× with deionized water, then once with TBST. Pat plate on a paper towel to remove excess liquid and bubbles. • 5. Dilute lysate in PBS (7 μg lysate/100 μl PBS). • 6. Add 100 μl of diluted lysate to each well. Shake at room temperature for 60 min. • 7. Wash plates as described in 4, above. • 8. Add 120 μl TBS to ELISA plate containing captured EGFR. • 9. Dilute test compound 1:10 in TBS in 96-well polypropylene plates (i.e. 10 μl compound+90 μl TBS). • 10. Add 13.5 μl diluted test compound to ELISA plate. […] Incubate for 30 minutes while shaking at room temperature. • 12. […] After 5 minutes, stop reaction by adding 16.5 μl of 200 mM EDTA (pH 8.0) to each well, shaking continuously. After the EDTA has been added, shake for 1 min. • 14. Wash 4× with deionized water, twice with TBST. • 15. Add 100 μl anti-phosphotyrosine (1:3000 dilution in TBST) per well. Incubate 30-45 min. at room temperature, with shaking. • 16. Wash as described in 4, above. • 17. Add 100 μl Biosource Goat anti-rabbit IgG peroxidase conjugate (1:2000 dilution in TBST) to each well. Incubate 30 min. at room temperature, with shaking. • 18. Wash as described in 4, above. • 19. Add 100 μl of ABTS/H2O2 solution to each well. • 20. Incubate 5 to 10 minutes with shaking. Remove any bubbles. • 21. If necessary stop reaction with the addition of 100 μl 1 0.2 M HCl per well. • 22. Read assay on Dynatech MR7000 ELISA reader. Test Filter: 410 nM Reference Filter: 630 Nm.

T1 sequence (P09619 33-1106): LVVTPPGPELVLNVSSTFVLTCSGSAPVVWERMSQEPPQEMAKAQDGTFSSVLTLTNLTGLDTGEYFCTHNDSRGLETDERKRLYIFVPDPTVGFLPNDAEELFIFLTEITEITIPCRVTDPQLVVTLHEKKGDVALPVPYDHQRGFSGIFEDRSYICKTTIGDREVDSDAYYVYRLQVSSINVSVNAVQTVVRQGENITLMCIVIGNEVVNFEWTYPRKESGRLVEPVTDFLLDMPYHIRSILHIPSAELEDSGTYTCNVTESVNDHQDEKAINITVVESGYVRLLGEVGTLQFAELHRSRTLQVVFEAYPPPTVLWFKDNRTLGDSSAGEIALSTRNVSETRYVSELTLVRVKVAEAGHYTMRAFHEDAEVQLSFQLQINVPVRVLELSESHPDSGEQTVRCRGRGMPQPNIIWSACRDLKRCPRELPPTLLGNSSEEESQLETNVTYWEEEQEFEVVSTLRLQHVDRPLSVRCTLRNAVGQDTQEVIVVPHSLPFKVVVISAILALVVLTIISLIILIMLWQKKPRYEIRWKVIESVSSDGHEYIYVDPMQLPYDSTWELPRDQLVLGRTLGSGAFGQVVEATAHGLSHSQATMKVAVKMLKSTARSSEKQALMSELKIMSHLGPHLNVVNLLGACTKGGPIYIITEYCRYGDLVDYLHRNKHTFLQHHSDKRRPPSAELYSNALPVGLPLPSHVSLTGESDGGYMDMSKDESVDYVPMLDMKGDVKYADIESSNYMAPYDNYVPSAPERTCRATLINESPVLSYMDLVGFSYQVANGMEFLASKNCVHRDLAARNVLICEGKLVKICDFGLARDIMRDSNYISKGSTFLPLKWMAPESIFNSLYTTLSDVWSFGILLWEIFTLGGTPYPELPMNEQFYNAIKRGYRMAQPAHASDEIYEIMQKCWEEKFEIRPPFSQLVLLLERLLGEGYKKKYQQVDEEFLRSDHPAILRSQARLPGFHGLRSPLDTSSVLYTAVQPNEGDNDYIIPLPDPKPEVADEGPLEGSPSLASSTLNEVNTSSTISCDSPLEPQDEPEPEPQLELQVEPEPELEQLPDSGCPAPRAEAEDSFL
Sequence of Myc-GyrB-FGFR fusion protein (P11362 478-767 limits assumed): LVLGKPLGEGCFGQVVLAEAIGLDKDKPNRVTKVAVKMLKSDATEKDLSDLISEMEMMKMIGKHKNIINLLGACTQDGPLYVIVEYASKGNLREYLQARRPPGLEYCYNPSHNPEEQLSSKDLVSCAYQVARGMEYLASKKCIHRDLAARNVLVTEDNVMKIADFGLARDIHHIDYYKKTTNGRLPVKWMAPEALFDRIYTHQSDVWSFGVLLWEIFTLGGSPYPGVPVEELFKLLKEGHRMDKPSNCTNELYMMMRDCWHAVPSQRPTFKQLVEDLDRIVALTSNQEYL
Sequence of EGFR (P00533 25-1210): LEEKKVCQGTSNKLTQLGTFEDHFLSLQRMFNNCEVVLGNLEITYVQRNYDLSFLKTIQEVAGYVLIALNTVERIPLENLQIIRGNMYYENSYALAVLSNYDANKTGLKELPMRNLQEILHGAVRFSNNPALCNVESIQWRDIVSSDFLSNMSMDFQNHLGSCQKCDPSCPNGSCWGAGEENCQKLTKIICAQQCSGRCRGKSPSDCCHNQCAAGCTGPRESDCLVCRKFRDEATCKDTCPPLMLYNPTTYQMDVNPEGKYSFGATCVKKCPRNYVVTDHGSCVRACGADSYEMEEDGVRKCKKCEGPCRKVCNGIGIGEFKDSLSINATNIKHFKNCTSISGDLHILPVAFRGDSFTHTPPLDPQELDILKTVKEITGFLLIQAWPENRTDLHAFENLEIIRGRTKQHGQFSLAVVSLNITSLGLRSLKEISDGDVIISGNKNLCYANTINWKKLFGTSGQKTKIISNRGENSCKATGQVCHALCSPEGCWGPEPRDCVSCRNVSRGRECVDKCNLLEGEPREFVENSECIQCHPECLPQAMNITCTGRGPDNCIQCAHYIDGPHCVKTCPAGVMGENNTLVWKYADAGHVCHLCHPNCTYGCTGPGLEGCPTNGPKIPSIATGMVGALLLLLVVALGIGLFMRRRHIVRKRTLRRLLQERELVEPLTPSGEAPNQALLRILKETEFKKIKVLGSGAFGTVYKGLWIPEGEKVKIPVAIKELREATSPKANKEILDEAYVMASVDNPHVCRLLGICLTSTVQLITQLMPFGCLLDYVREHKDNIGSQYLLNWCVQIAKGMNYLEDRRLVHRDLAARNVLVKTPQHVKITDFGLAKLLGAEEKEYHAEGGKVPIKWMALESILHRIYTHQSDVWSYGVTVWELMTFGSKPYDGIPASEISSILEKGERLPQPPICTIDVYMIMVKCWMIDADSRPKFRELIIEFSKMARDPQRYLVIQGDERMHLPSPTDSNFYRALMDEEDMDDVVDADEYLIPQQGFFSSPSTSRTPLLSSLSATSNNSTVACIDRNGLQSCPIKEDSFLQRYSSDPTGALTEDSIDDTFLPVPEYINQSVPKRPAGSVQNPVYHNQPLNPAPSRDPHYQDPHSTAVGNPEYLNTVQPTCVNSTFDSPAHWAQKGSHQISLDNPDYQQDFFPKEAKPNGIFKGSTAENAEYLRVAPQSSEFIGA
T2 sequence (P35968 786-1356 limits assumed): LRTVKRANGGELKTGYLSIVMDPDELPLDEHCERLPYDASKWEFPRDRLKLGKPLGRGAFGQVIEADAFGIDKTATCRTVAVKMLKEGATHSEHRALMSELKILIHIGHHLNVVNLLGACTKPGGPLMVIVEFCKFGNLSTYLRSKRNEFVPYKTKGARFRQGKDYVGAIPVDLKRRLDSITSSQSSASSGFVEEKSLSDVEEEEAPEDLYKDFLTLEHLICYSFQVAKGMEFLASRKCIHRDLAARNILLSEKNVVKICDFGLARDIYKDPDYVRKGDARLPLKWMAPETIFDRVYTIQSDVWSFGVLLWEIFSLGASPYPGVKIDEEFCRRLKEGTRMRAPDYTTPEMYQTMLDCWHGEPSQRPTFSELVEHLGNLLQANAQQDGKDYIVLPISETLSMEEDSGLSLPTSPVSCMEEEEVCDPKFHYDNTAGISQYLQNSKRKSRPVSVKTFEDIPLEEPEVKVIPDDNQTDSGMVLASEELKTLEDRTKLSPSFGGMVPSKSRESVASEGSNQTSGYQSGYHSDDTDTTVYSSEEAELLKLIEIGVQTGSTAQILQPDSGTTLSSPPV

In general, IC50 refers to the point on the concentration scale where inhibition reaches its midpoint. Consider `CCOC(=O)c1[nH]c(/C=C2\C(=O)Nc3cccc(C)c32)c(CCC(=O)O)c1C` [Example 139, 4-(2-Carboxyethyl)-3-methyl-5-(4-methyl-2-oxo-1,2-dihydroindol-3-ylidenemethyl)-1H-pyrrole-2-carboxylic acid ethyl ester], for which the IC50 at PDGFR-β is above 100 µM; in test [1] it was 12.6 µM; against flkGST, 7.56 µM; on EGFR it was above 100 µM.

Take `CCOC(=O)c1[nH]c(/C=C2\C(=O)Nc3ccc(S(=O)(=O)NC)cc32)c(CCC(=O)O)c1C` [Example 146]: the IC50 was above 100 µM on PDGFR-β, above 20 µM in test [1], 15.6 µM at flkGST and above 100 µM on EGFR.

Take `CCOC(=O)c1[nH]c(/C=C2\C(=O)Nc3ccc(Br)cc32)c(CCC(=O)O)c1C` [Example 143, 5-(5-Bromo-2-oxo-1,2-dihydroindol-3-ylidenemethyl)-4-(2-carboxy-ethyl)-3-methyl-1H-pyrrole-2-carboxylic acid ethyl ester]: the concentration for half-maximal inhibition (IC50) is above 100 µM at PDGFR-β, 16.6 µM in test [1], 26.9 µM against flkGST and above 100 µM on EGFR.

Regarding `CCOC(=O)c1[nH]c(/C=C2\C(=O)Nc3ccc(S(=O)(=O)NC(C)C)cc32)c(CCC(=O)O)c1C` [Example 148, 4-(2-Carboxyethyl)-5-(5-isopropylsulfamoyl-2-oxo-1,2-dihydro-indol-3-ylidenemethyl)-3-methyl-1H-pyrrole-2-carboxylic acid ethyl ester], the concentration for half-maximal inhibition (IC50) at PDGFR-β was above 100 µM; in test [1] it was above 20 µM; at flkGST, 23.9 µM; on EGFR it was above 100 µM.

As to `CCOC(=O)c1[nH]c(/C=C2\C(=O)Nc3cc(Br)ccc32)c(CCC(=O)O)c1C` [Example 142, 5-(6-Bromo-2-oxo-1,2-dihydroindol-3-ylidenemethyl)-4-(2-carboxy-ethyl)-3-methyl-1H-pyrrole-2-carboxylic acid ethyl ester], the IC50 at PDGFR-β is above 100 µM; in test [1] it was 5.9 µM; against flkGST, 21.1 µM; at EGFR, above 100 µM.

Regarding `CCOC(=O)c1[nH]c(/C=C2\C(=O)Nc3cc(OC)ccc32)c(CCC(=O)O)c1C` [Example 141, 4-(2-Carboxyethyl)-5-(6-methoxy-2-oxo-1,2-dihydroindol-3-ylidenemethyl)-3-methyl-1H-pyrrole-2-carboxylic acid ethyl ester], the IC50 at PDGFR-β was 85.1 µM; in test [1], 8.38 µM; at flkGST it was 11.5 µM; at EGFR, above 100 µM.

Turning to `CCOC(=O)c1c(C)[nH]c(/C=C2\C(=O)Nc3ccc(Cl)cc32)c1CCC(=O)O` [Example 112, 4-(2-Carboxyethyl)-5-(5-chloro-2-oxo-1,2-dihydroindol-3-ylidenemethyl)-2-methyl-1H-pyrrole-3-carboxylic acid ethyl ester], the IC50 was 0.02 µM on PDGFR-β, above 20 µM in test [1], 2.36 µM against flkGST and above 100 µM at EGFR.

For the compound `CCOC(=O)c1[nH]c(/C=C2\C(=O)Nc3cc(-c4ccccc4)ccc32)c(CCC(=O)O)c1C` [Example 144, 4-(2-Carboxyethyl)-3-methyl-5-(2-oxo-6-phenyl-1,2-dihydroindol-3-ylidenemethyl)-1H-pyrrole-2-carboxylic acid ethyl ester], the IC50 was above 100 µM at PDGFR-β, 2.77 µM in test [1], 9.03 µM against flkGST and above 100 µM at EGFR.

Turning to `CCOC(=O)c1[nH]c(/C=C2\C(=O)Nc3ccc(OC)cc32)c(CCC(=O)O)c1C` [Example 140, 4-(2-Carboxyethyl)-5-(5-methoxy-2-oxo-1,2-dihydroindol-3-ylidenemethyl)-3-methyl-1H-pyrrole-2-carboxylic acid ethyl ester], the IC50 at PDGFR-β was above 100 µM; in test [1] it was 12.8 µM; against flkGST, 6.65 µM; at EGFR, above 100 µM.
